Experimental data: US12201626B2, “Bifunctional compositions for the treatment of cancer” (ARMACEUTICA, INC., priority 2018, dated 2025)
Like-named read-outs stand apart in the source and are kept apart here.

What was measured:
[1] = Differential Nuclear Staining (DNS) cytotoxicity assay; assay type: cell-based; settings: human; for selectivity ratio at 72 h: read-out: selective cytotoxicity index (SCI)
From the text: In this study, 19 human cell lines were utilized: seven breast human cancer; MDA-MB-468, MCF-7, T47D, HCC1419, HCC70, MDA-MB-231 (triple negative) and its lung metastatic (LM) derivative MDA-MB-231 LM2; four human leukemia/lymphoma cells, HL-60, Ramos, Jurkat and CEM, three human ovarian cancer, Ovcar 8, Ovcar 5 and Ovcar 3, one lung cancer, one melanoma and one pancreatic cell line, A549, A375, Panc-1 respectively. Furthermore, for selectivity/comparative purposes, the cell lines from the non-cancerous origin, MCF-10A, HS-27 were also included. The culture media used for MDA-MB-231, MDA-MB-231 LM2, MDA-MB-468, MCF-7, A549, A375, Panc-1, and HS-27 was DMEM (Hyclone, Logan UT), whereas for T47D, HCC-1419, HCC-70, HL-60, Ramos, Jurkat, CEM, Ovcar 8 and Ovcar 5 was RPMI-1640 (Hyclone, Logan UT). Consistently, both DMEM and RPMI culture media was supplemented with 10% heat-inactivated fetal bovine serum (FBS: Hyclone), 100 U/ml penicillin and 100 μg/ml streptomycin (Thermo Fisher Scientific Inc., Rockford, IL). The MCF-10A cells were grown in DMEM/F12 supplemented with 10% FBS, 10 μg/ml recombinant human insulin (Sigma), 0.5 μg/ml hydrocortisone (Sigma), 20 ng/ml epidermal growth factor, 2.5 mM L-glutamine, 100 U/ml penicillin, and 100 μg/ml streptomycin. Also, a slight modification of the culture media to the HL-60 and Ovcar 3 cell lines was that 20% of FBS was added to the media (ATCC, Manassas, VA, USA). In addition, Ovcar 3 cells required 10 μg/ml recombinant human insulin (Sigma). The adherent cells, growing in the logarithmic growth phase at a 60-75% confluence, were detached by utilizing a HyQtase enzyme (Thermo Fisher Scientific Inc.), counted and seeded in 96-well plates at 10,000 cells density in 100 μL of culture medium per well. Cells growing in suspension were processed similarly as described above except for the addition of HyQtase. Typically, the incubation conditions of all the cells were at 37° C. in a 5% CO2 humidified atmosphere.
To analyze the potential cytotoxic activity of PND, the Differential Nuclear Staining (DNS) assay, which was validated for high-throughput screening (HTS) using live-cell bio-imaging was utilized. For this assay, cells were seeded at 10,000 cells/well density in a 96-well plate in 100 μl of culture media, incubated overnight, and treated with a gradient of PND concentrations for 72 h. Two hours before imaging, two fluorescent nucleic acid intercalators were added to each well, Hoechst 33342 and propidium iodide (PI; Invitrogen); at a final concentration of 1 μg/ml each. Due to its high permeability, Hoechst stains all of the cells (total dead and alive), whereas PI only stains dead or dying cells. Montages of 2 by 2 images were captured directly from each individual well of the culture plates by using a multi-well plate reader IN Cell 2000 analyzer, an HTS and high-content analysis (HCA) system (GE Healthcare Life Sciences, Pittsburgh, PA). The following controls were included in every single plate: PBS as solvent/vehicle control, hydrogen peroxide as a positive control for cytotoxicity, and untreated cells to determine the background of toxicity due to cell manipulation and intrinsic factors usually associated with the culture protocol. Each experimental data point, as well as controls, were assessed in triplicates. Cytotoxic concentration 50% (CC50) values were calculated based on a linear interpolation equation. CC50 is defined as the PND concentration required to disrupt the plasma membrane integrity of 50% of the cell population, as compared with solvent-treated cells.
The selective cytotoxicity index (SCI) denotes the capability of a given experimental compound to kill cancer cells more efficiently while inflicting minimal toxicity to non-cancerous origin cells. Thus, the SCI for PND was calculated as follow: SCI=CC50 of non-cancerous cells/CC50 of cancer cells.

[2] = system: malignancy that was metastatic or unresectable; assay: Open-label study of oral PND in terminally-ill canine cancer patients; assay type: in vivo
From the text: Due to ethical concerns of treating terminally-ill dogs, there was no placebo group.
The secondary outcomes were: anti-tumor activity, malignancy-associated symptom relief, and the safety and tolerability of PND.
Case 1, Mast cell carcinoma: Dog (Golden Retriever), female, 6 years old, 28.7 kg. Cancer was confirmed by histopathology report. In mid-May 2019 the administration of oral PND to the dog began after which patient received no other cancer medication. Veterinarian expected survival length of between 4 and 6 months at the time of study entry. Patient received 23 mg/kg/day PND (325 mg in the morning and 325 mg in the evening).
Case 2, Osteosarcoma: Dog (Saint Bernard), male, 5 years old, 49.7 kg. On 17 May 2019 the administration of oral PND began after which the patient received no other cancer medication. The veterinarian expected a survival length of between 4 and 6 months at the time of study entry. Patient received 20 mg/kg/day PND (325 mg in the morning and 650 mg in the evening).
Case 3, spindle cell sarcoma: Dog (Border Collie), male, 9 years old, 28.5 kg. In 2014 the dog was diagnosed with a low-grade spindle cell sarcoma, and was due to be euthanized on 11 Feb. 2019, with a life expectancy of 1-2 weeks. Instead, the veterinarian began the administration of oral PND on 11 Feb. 2019 after which patient received no other cancer medication. Patient received 15 mg/kg/day PND (215 mg in the morning and 215 mg in the evening).
Case 4, non-Hodgkin lymphoma: Dog (Boxer), female, 27 kg, 11 years old. Cancer was confirmed by biopsy report. In December 2018 the administration of oral PND to the dog began after which patient received no other cancer medication. Patient received 15 mg/kg/day PND (210 mg in the morning and 210 mg in the evening). However, the administration of PND stopped in February 2019 (due to shipping problems from the USA to Canada) and never resumed.
Case 5, mast cell tumor: Dog, male, 27.9 kg. Cancer was confirmed by histopathology report. A tumor was surgically excised from tongue, and there was no clean border. In December 2018 the administration of oral PND began after which the patient received no other cancer medication. Patient received 15 mg/kg/day PND (210 mg in the morning and 210 mg in the evening).

COC1=CC=C2Nc3cc(Cl)ccc3C(N=C3C=C(CN4CCCC4)C(=O)C(CN4CCCC4)=C3)=C2N1 [PND, 4-[(7-chloro-2-methoxy-1,5-dihydrobenzo[b][1,5]naphthyridin-10-yl)imino]-2,6-bis(pyrrolidin-1-ylmethyl)cyclohexa-2,5-dien-1-one]
selectivity ratio at 72 h ([1]; HL-60): 3.5 | selectivity ratio at 72 h ([1]; MCF-7 cells against non-cancerous MCF-10A cells, vs MCF-10A): 4.13 | CC50 at 72 h ([1]; MCF-10A non-cancerous cells): 6.6 µM | selectivity ratio at 72 h ([1]; MDA-MB-231 LM2 cells against non-cancerous MCF-10A cells, vs MCF-10A): 2.54 | selectivity ratio at 72 h ([1]; MDA-MB-231 cells against non-cancerous MCF-10A cells, CC50 of non-cancerous MCF-10A / CC50 of MDA-MB-231): > 3 | selectivity ratio at 72 h ([1]; MDA-MB-468 cells against non-cancerous MCF-10A cells, vs MCF-10A): 3.88 | selectivity ratio at 72 h ([1]; T47D cells (against non-cancerous cells, line not specified)): < 1 | selectivity ratio at 72 h ([1]; HCC-70): < 1 | selectivity ratio at 72 h ([1]; Jurkat): 3.3 | selectivity ratio at 72 h ([1]; Ramos): 3 | selectivity ratio at 72 h ([1]; lung cancer line): < 2 | selectivity ratio at 72 h ([1]; melanoma cell line): 3.2 | selectivity ratio at 72 h ([1]; pancreatic cancer line): < 2 | selectivity ratio at 72 h ([1]; two of the three ovarian cancer lines): 3.9 | study-drug related adverse events ([2]; Case 1, mast cell carcinoma, 23 mg/kg/day oral): no reports of any study-drug related adverse events | survival status ([2]; Case 1, as of June 2019, start mid-May 2019): still alive | possible study-drug related adverse events ([2]; Case 2, osteosarcoma, 20 mg/kg/day oral, resolved with diphenhydramine): drooling, facial swelling, and vomiting | survival status ([2]; Case 2, at June 2019, start 17 May 2019): still alive | study-drug related adverse events ([2]; Case 3, spindle cell sarcoma, 15 mg/kg/day oral): no reports of any study-drug related adverse events except initial vomiting | survival lengthened by ([2]; Case 3, life expectancy 1-2 weeks at entry): 3 months | reduction of volume of each tumor at follow-up ([2]; Case 3, three tumors): approximately 20% | survival lengthened by ([2]; Case 4): 2.5 months | study-drug related adverse events ([2]; Case 4, non-Hodgkin lymphoma, 15 mg/kg/day oral): no reports of any study-drug related adverse events | tumor shrinkage ([2]; Case 4, neck tumor, by March 2019): 70% | tumor volume at follow-up ([2]; Case 5, mast cell tumor, 15 mg/kg/day oral, 2 cm×1 cm versus 2 cm×1 cm): remained the same volume | survival status ([2]; Case 5, as of June 2019, start December 2018): still alive
